Values joined by “and” are separate entries in the source; they are usually repeats but may differ in a detail not shown here. Equal values may be shown once.
Assays:
[1] = Stability in aqueous solution (half-life of enamine derivatives); assay type: physicochemical; conditions: pH 7.4 phosphate buffer, μ 0.15, 25° C., UV absorption spectrometry; "stable" = enamine structure retained even after 6 hours
Method: To examine the stability in water of the enamine derivatives (I) obtained above, some representative compounds were selected and their half-lives [t 0.5 (min.)] in pH 7.4 phosphate buffer (μ: 0.15, temp.: 25° C.) were determined by ultraviolet absorption spectrometry. In the Table, "stable" means that the enamine structure was retained even after 6 hours.

[2] = Oral capsule of AB-PC sodium with adjuvant, blood concentration of AB-PC; assay type: in vivo; conditions: AB-PC sodium 15 mg/kg + Compound 3 10 mg/kg, one value per rabbit, sodium salt
Method: Ampicillin (briefly, AB-PC) sodium
Capsules each containing the above indicated amounts of components were prepared by the conventional procedure and administrered to 3 rabbits. Immediately thereafter, each animal was given 20 ml of water and the concentration of AB-PC in the blood was measured by the biological assay method. In the figure, white circles represent AB-PC alone and black circles represent the capsule according to this invention.
The blood concentrations were measured in conformity with the Antibiotic Standard of Japan. The cup method was employed with Sarcina lutea.

[3] = Rectal ointment of AB-PC.Na with enamine derivative, blood concentration; assay type: in vivo, rabbit; conditions: rectal ointment AB-PC.Na 10%, enamine derivative 10%, dose 15 mg AB-PC.Na/kg
Method: AB-PC and cephalexin (briefly, CEX), both of which are sparingly absorbed from the rectum, are also tested. Thus, enamine derivatives (I) and these antibiotics were used to prepare rectal ointments in accordance with established practice. The ointments were administered to rabbits to investigate the peak blood concentrations (μg/ml) and AUC (μg.min./ml).
Dose: 15mg AB-PC . Na/kg
Compounds 3, 5, 13 and 14 were used as said enamine derivatives (I) in Recipes 4, 5, 6 and 7, respectively.

[4] = Rectal ointment of CET-Na with enamine derivative, blood concentration; assay type: in vivo, rabbit
Method: Cephalothin sodium (briefly CET-Na), a drug which is sparingly absorbed from the rectum, was selected for a test. Thus, CET-Na was dispersed in liquid paraffin-white vaseline base to prepare rectal ointment. The ointment was administered to rabbits by the rectal route. […] The blood concentration was measured in conformity with the biological assay method in the Antibiotic Standard of Japan. […]

[5] = Rectal insulin suppository with Compound 3, blood glucose concentration (glucoseoxidase method); assay type: in vivo, rabbit; conditions: 3 I.U. insulin per animal + Compound 3 0.05 g in Witepsol H-15
Method: The test was conducted by the glucoseoxidase method. […] The largest depression of blood glucose from the pre-medication level was expressed in % response.

[6] = Rectal inulin suppository with adjuvant, urinary recovery of inulin; assay type: in vivo, rabbit
Method: The above components were used to prepare a suppository in accordance with established pharmaceutical practice. The suppository was rectally administered to rabbits (body weights 2.0-2.5 kg) and the blood concentrations were determined.
The results, shown in FIG. 7, indicates the versatility of enamine derivative (I). The amount of inulin excreted in the urine was 18% of the dose administered.
(§1) The following dosage forms (dispersed in Witepsol H-15®) were rectally administered to dogs and humans to measure the urinary recovery rates of inulin. […] The test was carried out by the Lunt method.

[7] = Rectal inulin dosage form with adjuvant, urinary recovery of inulin; assay type: in vivo, dog; conditions: in Witepsol H-15, level of addition of enamine derivative 5%, Lunt method
Method: as §1

[8] = as above; assay type: in vivo, human; conditions: in Witepsol H-15, level of addition of enamine derivative 1%, Lunt method
Method: as §1

[9] = CET, rectal ointment CET.Na 20%, enamine derivative 10%, dose 50 mg CET.Na/kg

With `CCOC(=O)C=C(C)N[C@@H](C(=O)[O-])c1ccccc1.[Na+]` [Compound 3, N-(1-Methyl-2-ethoxycarbonylvinyl)-D-phenylglycine sodium salt] as the compound, how does the “half-life t 0.5” value [1] read?
The value was 26.1 min.

And the “area under the blood-concentration curve (AUC) of AB-PC relative to AB-PC alone” value [2]?
The value was 1.52 times and 1.99 times and 1.73 times.

What about the AUC [3] of the same compound?
Its AUC is 270 µg·min/mL.

And the Peak blood concentration [3]?
The Peak blood concentration was 4.8 µg/mL.

And the AUC [4, 9]?
The AUC was 445 µg·min/mL.

And the Peak blood concentration [4, 9]?
The Peak blood concentration was 14.4 µg/mL.

And the “change in blood concentration of CET (in words)” value ([4]; rectal ointment CET-Na 20%, Compound 3 10%, dose 50 mg CET-Na/kg, FIG. 3)?
Its value is “high CET level in the blood could by very quickly achieved”.

What about the “reduction of blood glucose concentration from the pre-medication level” value [5] of the same compound?
Its value is “about 50%”.

What about the “% Urinary recovery” value ([6]; inulin, rectal, in Witepsol H-15, level of addition of enamine derivative 10%, Lunt method) of the same compound?
Its value is 8%.

And the “amount of inulin excreted in the urine” value ([6]; rectal suppository, inulin 0.25 g + Compound 3 0.05 g in Witepsol H-15)?
The value was 18 % of the dose administered.

And the “% Urinary recovery” value [7]?
The value was 20%.

And the “% Urinary recovery” value [8]?
Its value is 11%.

Source: patent US4277465A, “Adjuvant for promoting absorption of therapeutically active substances through the digestive tract” (Kyoto Yakuhin Kogyo Kabushiki Kaisha, priority 1978, dated 1981)
